Experimental data published in patent US7049303B2, “Inhibition of viruses” (Medical Research Council, priority 2001, dated 2006).

How the values were obtained:
HIV-1(IIIB) = assay: Serial passage of HIV-1 infected CEM cell cultures with sub-toxic drug, cytopathic effect (giant cell formation); format: cell-based; conditions: for percentage of cytopathic effect (giant cell formation), passage number 1: passage 1; for percentage of cytopathic effect (giant cell formation), passage number 1 / percentage of cytopathic effect (giant cell formation), passage number 2 / percentage of cytopathic effect (giant cell formation), passage number 3 / percentage of cytopathic effect (giant cell formation), passage number 4 / percentage of cytopathic effect (giant cell formation), passage number 5 / percentage of cytopathic effect (giant cell formation), passage number 6 / percentage of cytopathic effect (giant cell formation), passage number 7: subcultivation every 5 days; for percentage of cytopathic effect (giant cell formation), passage number 2: passage 2; for percentage of cytopathic effect (giant cell formation), passage number 3: passage 3; for percentage of cytopathic effect (giant cell formation), passage number 4: passage 4; for percentage of cytopathic effect (giant cell formation), passage number 5: passage 5; for percentage of cytopathic effect (giant cell formation), passage number 6: passage 6; for percentage of cytopathic effect (giant cell formation), passage number 7: passage 7
Procedure: HIV-1 infected CEM cells were subcultured every 4–5 days in the presence of sub-toxic concentrations (in the range of 10–20% of their respective IC50 value) of the compounds under test. At each sub-culture, cell-free supernatant (10–20 μl) was transferred to fresh 1 ml cell cultures. At regular intervals the cultures were inspected microscopically to assess the extent of any cytopathic effect (giant cell formation). As an alternative, it is also possible to perform an immunoassay to quantify viral p24 production.
The preliminary results for up to 7 passages are shown below in Table 3.

[1] = tested on: human T-lymphocytes (CEM/O cells); assay: Toxicity: inhibition of proliferation of human T-lymphocytes (CEM/O cells); format: cell-based; conditions: T-lymphocyte, read-out: IC50 (50% inhibitory concentration), proliferation of CEM/O cells
Procedure: Following synthesis, the various compounds were tested in vitro for toxicity, by measuring the IC50 (i.e. the concentration which caused 50% inhibition) in respect of the inhibitory effects of the compounds on the proliferation of human T-lymphocytes (CEM/O cells).

OC[C@H]1O[C@@H](n2cnc3c(NO)ncnc32)[C@H](O)[C@@H]1O [JA28, N^6hydroxyadenosine]
percentage of cytopathic effect (giant cell formation), passage number 1 (HIV-1(IIIB); 20 μM): 100% | percentage of cytopathic effect (giant cell formation), passage number 2 (HIV-1(IIIB); 20 μM): 100% | percentage of cytopathic effect (giant cell formation), passage number 3 (HIV-1(IIIB); 20 μM): 19% | percentage of cytopathic effect (giant cell formation), passage number 4 (HIV-1(IIIB); 20 μM): 100% | percentage of cytopathic effect (giant cell formation), passage number 5 (HIV-1(IIIB); 20 μM): 100% | percentage of cytopathic effect (giant cell formation), passage number 6 (HIV-1(IIIB); 20 μM): 100% | percentage of cytopathic effect (giant cell formation), passage number 7 (HIV-1(IIIB); 20 μM): 100% | percentage of cytopathic effect (giant cell formation), passage number 1 (HIV-1(IIIB); 40 μM): 100% | percentage of cytopathic effect (giant cell formation), passage number 2 (HIV-1(IIIB); 40 μM): 100% | percentage of cytopathic effect (giant cell formation), passage number 3 (HIV-1(IIIB); 40 μM): 50% | percentage of cytopathic effect (giant cell formation), passage number 4 (HIV-1(IIIB); 40 μM): 100% | percentage of cytopathic effect (giant cell formation), passage number 5 (HIV-1(IIIB); 40 μM): 100% | percentage of cytopathic effect (giant cell formation), passage number 6 (HIV-1(IIIB); 40 μM): 75% | percentage of cytopathic effect (giant cell formation), passage number 7 (HIV-1(IIIB); 40 μM): 6% | IC50 [1]: 156 ± 15 µM

O=c1nc(NO)ccn1[C@@H]1O[C@H](CO)[C@@H](O)[C@H]1O [JA29, N^4-hydroxycytidine, reference compound]
percentage of cytopathic effect (giant cell formation), passage number 1 (HIV-1(IIIB); 0.8 μM): 100% | percentage of cytopathic effect (giant cell formation), passage number 2 (HIV-1(IIIB); 0.8 μM): 100% | percentage of cytopathic effect (giant cell formation), passage number 3 (HIV-1(IIIB); 0.8 μM): 12% | percentage of cytopathic effect (giant cell formation), passage number 4 (HIV-1(IIIB); 0.8 μM): 100% | percentage of cytopathic effect (giant cell formation), passage number 5 (HIV-1(IIIB); 0.8 μM): 100% | percentage of cytopathic effect (giant cell formation), passage number 6 (HIV-1(IIIB); 0.8 μM): 100% | percentage of cytopathic effect (giant cell formation), passage number 7 (HIV-1(IIIB); 0.8 μM): 100% | percentage of cytopathic effect (giant cell formation), passage number 1 (HIV-1(IIIB); 2 μM): 100% | percentage of cytopathic effect (giant cell formation), passage number 2 (HIV-1(IIIB); 2 μM): 100% | percentage of cytopathic effect (giant cell formation), passage number 3 (HIV-1(IIIB); 2 μM): 25% | percentage of cytopathic effect (giant cell formation), passage number 4 (HIV-1(IIIB); 2 μM): 100% | percentage of cytopathic effect (giant cell formation), passage number 5 (HIV-1(IIIB); 2 μM): 100% | percentage of cytopathic effect (giant cell formation), passage number 6 (HIV-1(IIIB); 2 μM): 100% | percentage of cytopathic effect (giant cell formation), passage number 7 (HIV-1(IIIB); 2 μM): 100% | antiviral activity (inhibition of HIV replication) in words (HIV-1(IIIB); HIV-1 infected CEM cells, sub-toxic concentrations, up to 7 passages): does not demonstrate any antiviral activity | IC50 [1]: 16 ± 1 µM

Nc1nc(NO)c2ncn([C@@H]3O[C@H](CO)[C@@H](O)[C@H]3O)c2n1 [JA30, 2-amino-N^6-hydroxyadenosine]
percentage of cytopathic effect (giant cell formation), passage number 1 (HIV-1(IIIB); 10 μM): 100% | percentage of cytopathic effect (giant cell formation), passage number 2 (HIV-1(IIIB); 10 μM): 100% | percentage of cytopathic effect (giant cell formation), passage number 3 (HIV-1(IIIB); 10 μM): 25% | percentage of cytopathic effect (giant cell formation), passage number 4 (HIV-1(IIIB); 10 μM): 100% | percentage of cytopathic effect (giant cell formation), passage number 5 (HIV-1(IIIB); 10 μM): 100% | percentage of cytopathic effect (giant cell formation), passage number 6 (HIV-1(IIIB); 10 μM): 100% | percentage of cytopathic effect (giant cell formation), passage number 7 (HIV-1(IIIB); 10 μM): 50% | IC50 [1]: 78 ± 3 µM
